Data: ChEMBL document CHEMBL1777759, “Synthesis of benzologues of Nitazoxanide and Tizoxanide: a comparative study of their in vitro broad-spectrum antiprotozoal activity” (Bioorg Med Chem Lett, 2011)
pIC50: −log10 of the molar value.

Key:
[1] = Cytotoxicity against african green monkey Vero cells after 72 hrs by MTT assay; type: cell-based; details: chlorocebus sabaeus
Leishmania mexicana = assay: Antileishmanial activity against Leishmania mexicana MHOM/MX/ISETGS promastigotes after 72 hrs by neubauer chamber; type: functional, organism-based
Trypanosoma cruzi [2] = assay: Antitrypanosomal activity against Trypanosoma cruzi MHOM/MX/1994/Ninoa epimastigotes after 72 hrs by neubauer chamber; type: functional, organism-based
Plasmodium berghei = assay: Antimalarial activity against Plasmodium berghei schizonts isolated from parasitized erythrocytes infected Wistar rat measured 16 hrs post compound exposure; type: functional, organism-based
[3] = Selectivity index, ratio of CC50 for african green monkey Vero cells to IC50 for Giardia intestinalis IMSS:0696:1; type: functional
Entamoeba histolytica [4] = assay: Antiprotozoan activity against Entamoeba histolytica HM1-IMSS trophozoites after 48 hrs; type: functional, organism-based
Trichomonas vaginalis = assay: Antiprotozoan activity against Trichomonas vaginalis GT3 trophozoites after 48 hrs; type: functional, organism-based; details: GT3, 48 h
Giardia intestinalis = assay: Antiprotozoan activity against Giardia intestinalis IMSS:0696:1 trophozoites after 48 hrs; type: functional, organism-based; details: Giardia duodenalis, IMSS:0696:1, 48 h
[5] = Selectivity index, ratio of CC50 for african green monkey Vero cells to IC50 for Entamoeba histolytica HM1-IMSS; type: functional
[6] = Selectivity index, ratio of CC50 for african green monkey Vero cells to IC50 for Plasmodium berghei; type: functional
[7] = Selectivity index, ratio of CC50 for african green monkey Vero cells to IC50 for Trichomonas vaginalis GT3; type: functional
[8] = Selectivity index, ratio of CC50 for african green monkey Vero cells to IC50 for Leishmania mexicana MHOM/MX/ISETGS; type: functional
[9] = Selectivity index, ratio of CC50 for african green monkey Vero cells to IC50 for Trypanosoma cruzi MHOM/MX/1994/Ninoa; type: functional
Trypanosoma cruzi [10] = assay: Ratio of IC50 for benzanidazole to compound for Trypanosoma cruzi MHOM/MX/1994/Ninoa; type: functional
Entamoeba histolytica [11] = assay: Ratio of IC50 for pentamidine to compound for Entamoeba histolytica HM1-IMSS; type: functional

Row | SMILES | CC50 at 72 h [1] [µM] | pIC50 (Leishmania mexicana) | pIC50 (Trypanosoma cruzi [2]) | pIC50 (Plasmodium berghei) | Ratio CC50/IC50 [3] | pIC50 (Entamoeba histolytica [4]) | pIC50 (Trichomonas vaginalis) | pIC50 (Giardia intestinalis) | Ratio CC50/IC50 [5] | Ratio CC50/IC50 [6] | Ratio CC50/IC50 [7] | Ratio CC50/IC50 [8] | Ratio CC50/IC50 [9] | Ratio IC50 (Trypanosoma cruzi [10]) | Ratio IC50 (Entamoeba histolytica [11])
1 | Cc1ncc([N+](=O)[O-])n1CCO [METRONIDAZOLE] | 387 | < 4.30 | < 4.30 | < 4.30 |  |  |  |  |  |  |  |  |  |  | 
2 | O=C(Cn1ccnc1[N+](=O)[O-])NCc1ccccc1 [BENZNIDAZOLE] | 14 | < 4.30 |  | 5.39 |  |  |  |  |  |  |  |  |  |  | 
3 | O=C(Nc1nc2ccc([N+](=O)[O-])cc2s1)c1ccccc1O | 607 | < 4.30 | < 4.30 | 5.63 | 1029 | 5.10 | 5.67 | 6.23 | 76 | 256 | 283 |  |  |  | 
4 | O=C(Nc1ncc([N+](=O)[O-])s1)c1ccccc1O [TIZOXANIDE] | 388 | 5.21 | 4.76 | 5.28 | 542 | 5.91 | 6.68 | 6.15 | 316 | 74 | 1839 | 63 | 22 |  | 
5 | CC(=O)Oc1ccccc1C(=O)Nc1nc2ccc([N+](=O)[O-])cc2s1 | 683 | 5.87 | 5.31 | 5.62 | 2300 | 5.45 | 6.07 | 6.53 | 194 | 282 | 811 | 506 | 140 | 7 | 10
6 | CC(=O)Oc1ccccc1C(=O)Nc1ncc([N+](=O)[O-])s1 [NITAZOXANIDE] | 833 | 5.21 | 4.73 | 5.41 | 686 | 6.30 | 7.17 | 5.92 | 1653 | 214 | 12250 | 135 | 44 |  | 
7 | N=C(N)c1ccc(OCCCCCOc2ccc(C(=N)N)cc2)cc1 [PENTAMIDINE] | 47 |  | < 4.30 | 5.53 |  |  |  |  |  |  |  |  |  |  | 
